According to PMC9557897 (ACS Omega, 2022):
Converted amounts (≈) assume the structure as drawn.

Experiments:
[1] = tested on: herpes simplex virus 1 (HSV-1); test: Plaque reduction assay; assay type: cell-based; conditions: Human alphaherpesvirus 1
ADV7 = conditions: cited from earlier work

SMILES | IC50 [1] [µg/mL] | EC50 (ADV7) [µg/mL]
Nc1nc2c(ncn2COCCO)c(=O)[nH]1 [acyclovir] | 0.07 (≈ 0.311 µM) | –
NC(=O)c1ncn([C@@H]2O[C@H](CO)[C@@H](O)[C@H]2O)n1 [ribavirin] | – | 27.8 (≈ 114 µM)
